pIC50: −log10 of the molar value. The source made the active and inactive calls. No cut-off for these calls is given here.
Legend:
[1] = target: T1, Estrogen receptor (Homo sapiens) (UniProt P03372); assay: Binding affinity to ERalpha (unknown origin) by competitive fluorometric receptor binding assay relative to estradiol
T1 sequence (whole entry): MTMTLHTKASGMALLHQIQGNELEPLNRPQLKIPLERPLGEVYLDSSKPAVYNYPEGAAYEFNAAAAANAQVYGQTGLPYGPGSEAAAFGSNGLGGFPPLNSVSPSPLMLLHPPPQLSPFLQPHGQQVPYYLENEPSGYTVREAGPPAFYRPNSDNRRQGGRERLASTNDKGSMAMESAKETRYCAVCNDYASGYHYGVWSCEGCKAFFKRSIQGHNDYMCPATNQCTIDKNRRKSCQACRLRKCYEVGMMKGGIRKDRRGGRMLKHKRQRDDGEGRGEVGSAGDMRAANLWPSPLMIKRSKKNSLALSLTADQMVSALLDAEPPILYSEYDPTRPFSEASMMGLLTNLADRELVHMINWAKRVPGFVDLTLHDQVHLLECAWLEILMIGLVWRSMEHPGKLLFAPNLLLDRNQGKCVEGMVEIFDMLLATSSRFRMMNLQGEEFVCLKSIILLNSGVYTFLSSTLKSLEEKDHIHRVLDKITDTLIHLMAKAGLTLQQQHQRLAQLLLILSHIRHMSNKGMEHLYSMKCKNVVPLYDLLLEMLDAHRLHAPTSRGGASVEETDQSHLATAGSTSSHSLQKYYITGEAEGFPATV

[2] = target: Estrogen receptor beta (Homo sapiens) (UniProt Q92731); assay: Binding affinity to ERbeta (unknown origin) by competitive fluorometric receptor binding assay relative to estradiol
MCF7 [3] = assay: Antiproliferative activity against human MCF7 cell incubated for 72 hrs by MTT assay; type: functional, cell-based; details: MCF7, 72 h
MCF-10A = assay: Cytotoxicity against human MCF10A cell incubated for 72 hrs by MTT assay; type: cell-based
[4] = Therapeutic index, ratio of IC50 for cytotoxicity against human MCF10A cells to IC50 for antiproliferative activity against human MCF7 cells; type: toxicity, cell-based; details: read-out: Ratio IC50
[5] = target: T1, Estrogen receptor (Homo sapiens); assay: Induction of ERalpha degradation in human MCF7 cells assessed as decrease in ERalpha protein expression at 5 uM incubated for 24 hrs by Western blot analysis relative to control; type: cell-based
[6] = target: T1, Estrogen receptor (Homo sapiens); assay: Induction of ERalpha degradation in human MCF7 cells assessed as decrease in ERalpha protein expression at 1 uM incubated for 24 hrs by Western blot analysis relative to control; type: cell-based; parameters: scale not given: the % may be the effect or the level left
[7] = target: T1, Estrogen receptor (Homo sapiens); assay: Induction of ERalpha degradation in human MCF7 cells assessed as decrease in ERalpha protein expression at 0.5 uM incubated for 24 hrs by Western blot analysis; type: cell-based
[8] = target: T1, Estrogen receptor (Homo sapiens); assay: Induction of ERalpha degradation in human MCF7 cells assessed as decrease in ERalpha protein expression at 5 uM incubated for 24 hrs in presence of proteasome inhibitor MG132 by Western blot analysis; type: cell-based
MCF7 [9] = assay: Induction of apoptosis in human MCF7 cells assessed as live cells at 1 uM incubated for 24 hrs by Annexin V-FITC/propidium iodide staining-based flow cytometric analysis (reference value: 85.37%); type: functional
MCF7 [10] = assay: Induction of apoptosis in human MCF7 cells assessed as early apoptotic cells at 1 uM incubated for 24 hrs by Annexin V-FITC/propidium iodide staining-based flow cytometric analysis (reference value: 1.26%); type: functional
MCF7 [11] = assay: Induction of apoptosis in human MCF7 cells assessed as late apoptotic cells at 1 uM incubated for 24 hrs by Annexin V-FITC/propidium iodide staining-based flow cytometric analysis (reference value: 8.73%); type: functional
MCF7 [12] = assay: Induction of apoptosis in human MCF7 cells assessed as necrotic cells at 1 uM incubated for 24 hrs by Annexin V-FITC/propidium iodide staining-based flow cytometric analysis (reference value: 4.65%); type: functional
MCF7 [13] = assay: Induction of apoptosis in human MCF7 cells assessed as live cells at 5 uM incubated for 24 hrs by Annexin V-FITC/propidium iodide staining-based flow cytometric analysis (reference value: 85.37%); type: functional
MCF7 [14] = assay: Induction of apoptosis in human MCF7 cells assessed as early apoptotic cells at 5 uM incubated for 24 hrs by Annexin V-FITC/propidium iodide staining-based flow cytometric analysis (reference value: 1.26%); type: functional
MCF7 [15] = assay: Induction of apoptosis in human MCF7 cells assessed as late apoptotic cells at 5 uM incubated for 24 hrs by Annexin V-FITC/propidium iodide staining-based flow cytometric analysis (reference value: 8.73%); type: functional
MCF7 [16] = assay: Induction of apoptosis in human MCF7 cells assessed as necrotic cells at 5 uM incubated for 24 hrs by Annexin V-FITC/propidium iodide staining-based flow cytometric analysis (reference value: 4.65%); type: functional
MCF7 [17] = assay: Induction of apoptosis in human MCF7 cells assessed as live cells at 10 uM incubated for 24 hrs by Annexin V-FITC/propidium iodide staining-based flow cytometric analysis (reference value: 85.37%); type: functional
MCF7 [18] = assay: Induction of apoptosis in human MCF7 cells assessed as early apoptotic cells at 10 uM incubated for 24 hrs by Annexin V-FITC/propidium iodide staining-based flow cytometric analysis (reference value: 1.26%); type: functional
MCF7 [19] = assay: Induction of apoptosis in human MCF7 cells assessed as late apoptotic cells at 10 uM incubated for 24 hrs by Annexin V-FITC/propidium iodide staining-based flow cytometric analysis (reference value: 8.73%); type: functional
MCF7 [20] = assay: Induction of apoptosis in human MCF7 cells assessed as necrotic cells at 10 uM incubated for 24 hrs by Annexin V-FITC/propidium iodide staining-based flow cytometric analysis (reference value: 4.65%); type: functional
[21] = Tmax in Sprague-Dawley rat at 3 mg/kg, iv administered via foot dorsal vein by LC-MS/MS analysis; type: ADME, organism-based; details: in vivo
[22] = Cmax in Sprague-Dawley rat at 3 mg/kg, iv administered via foot dorsal vein by LC-MS/MS analysis; type: ADME, organism-based; parameters: dose 3 mg/kg, route intravenous; details: in vivo
[23] = Half life in Sprague-Dawley rat at 3 mg/kg, iv administered via foot dorsal vein by LC-MS/MS analysis; type: ADME, organism-based; details: in vivo
[24] = AUC (0 to infinity) in Sprague-Dawley rat at 3 mg/kg, iv administered via foot dorsal vein by LC-MS/MS analysis; type: ADME, organism-based; parameters: dose 3 mg/kg, route intravenous, time infinity; details: in vivo
[25] = Volume of distribution at steady state in Sprague-Dawley rat at 3 mg/kg, iv administered via foot dorsal vein by LC-MS/MS analysis; type: ADME, organism-based; details: in vivo, read-out: Vdss
[26] = Plasma clearance in Sprague-Dawley rat at 3 mg/kg, iv administered via foot dorsal vein by LC-MS/MS analysis; type: ADME, organism-based

Sequence of Estrogen receptor beta (Homo sapiens) (Q92731 whole entry): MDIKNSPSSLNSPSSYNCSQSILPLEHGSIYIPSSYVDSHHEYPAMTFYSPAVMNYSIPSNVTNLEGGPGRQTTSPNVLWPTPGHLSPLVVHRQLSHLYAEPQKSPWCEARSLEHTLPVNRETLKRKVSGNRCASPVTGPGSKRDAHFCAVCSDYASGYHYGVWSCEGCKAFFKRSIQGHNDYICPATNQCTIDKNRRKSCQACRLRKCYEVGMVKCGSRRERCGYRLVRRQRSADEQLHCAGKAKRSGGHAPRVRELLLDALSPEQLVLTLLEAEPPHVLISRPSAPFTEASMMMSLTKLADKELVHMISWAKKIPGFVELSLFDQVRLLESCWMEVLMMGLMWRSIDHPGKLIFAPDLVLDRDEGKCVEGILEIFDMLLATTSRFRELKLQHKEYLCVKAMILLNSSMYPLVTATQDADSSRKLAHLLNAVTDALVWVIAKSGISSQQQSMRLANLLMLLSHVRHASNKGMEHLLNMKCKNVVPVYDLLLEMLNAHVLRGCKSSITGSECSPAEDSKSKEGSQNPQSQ

relative binding affinity (RBA) [1]: 3.11
relative binding affinity (RBA) [2]: 0.86
pIC50 (MCF7 [3]): 6.11
Activity [5]: Active
Activity [6]: 100%
Activity [7]: Active
Activity [8]: inactive
Tmax [21]: 4.8 min
Cmax [22]: 964 ng/mL
half-life [23]: 2.2 h
AUC(0-inf) [24]: 529 ng·h/mL
Vd [25]: 10.7 L/kg
clearance [26]: 105 mL/min/kg
Structure (SMILES): CCCCCCOc1ccc(N(CC(F)(F)F)S(=O)(=O)[C@H]2C[C@H]3O[C@@H]2C(c2ccc(O)cc2)=C3c2ccc(O)cc2)cc1 (relative stereo)
pIC50 (MCF-10A): 4.41
selectivity ratio [4]: 51
Activity (MCF7 [9]): 79.95%
Activity (MCF7 [10]): 5.99%
Activity (MCF7 [11]): 12.72%
Activity (MCF7 [12]): 1.34%
Activity (MCF7 [13]): 12.95%
Activity (MCF7 [14]): 36.96%
Activity (MCF7 [15]): 40.85%
Activity (MCF7 [16]): 9.24%
Activity (MCF7 [17]): 13.39%
Activity (MCF7 [18]): 65.96%
Activity (MCF7 [19]): 18.77%
Activity (MCF7 [20]): 1.88%

— ChEMBL document CHEMBL4359894, “Novel class of 7-Oxabicyclo[2.2.1]heptene sulfonamides with long alkyl chains displaying improved estrogen receptor α degradation activity” (Eur J Med Chem, 2019)
